In patent US12252469B2, “Crystalline forms of (E)-N-hydroxy-3-(1-(phenylsulfonyl)indolin-5-yl)acrylamide” (ANBOGEN THERAPEUTICS INC., priority 2023, dated 2025):
≈ marks a conversion by molar mass, not a printed value.

Legend:
[1] = Approximate solubility of starting material in 20 solvents at RT; assay type: physicochemical
Protocol: (peak) with one exotherm at 166.1° C. (peak). Approximate solubility of starting material was determined in 20 solvents at RT. Approximately 2 mg of sample was added into a 3-mL glass vial. Solvents in Table 2 were then added stepwise into the vials until the solids were dissolved visually or a total volume of 2 mL was reached. Solubility results summarized in Table 2 were used to guide the solvent selection in screening experiment design.

[2] = Heating experiment of Type A (XRPD); assay type: physicochemical
[3] = Accelerated stability test of Type A powder; assay type: physicochemical; conditions: 40±2° C./75±5% RH
Protocol: Furthermore, a long-term stability test and an accelerated stability test of Type A (in the form of powder) are executed, and the results thereof are shown in Table 19 and Table 20, respectively. More specifically, for the long-term stability test, the packaging and storage condition: package in double PE bags with silica gel in an aluminum bag and in a paper drum; sample quantity: 0.6 g; temperature: 25±2° C.; % relative humidity: 60±5%; frequency of analysis: 0, 1, 2, 3, 6, 9, 12, 18, 24, 36, 48 and 60 months; duration: 60 months. As for the accelerated stability test, the packaging and storage condition: package in double PE bags with silica gel in an aluminum bag and in a paper drum; sample quantity: 0.6 g; temperature: 40±2° C.; % relative humidity: 75±5%; frequency of analysis: 0, 1, 2, 3 and 6 months; duration: 6 months.

[4] = DVS water uptake; assay type: physicochemical
Protocol: DVS was measured via a SMS (Surface Measurement Systems) DVS Intrinsic or Intrinsic Plus. The relative humidity at 25° C. were calibrated against deliquescence point of LiCl, Mg(NO3)2 and KCl.

[5] = Competitive slurry, inter-conversion of Type A and Type B; assay type: physicochemical; conditions: t-Butanol and t-Butanol/H2O, RT; water activity calculated from KF by COSMOlogic
[6] = Solid stability evaluation for 1/2/4 weeks;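 further: Solid-state physical and chemical stability tracked by XRPD for form, KF for water content, and HPLC for purity and assay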
[7] = all storage conditions, 4 weeks

What does the source list for `O=C(/C=C/c1ccc2c(c1)CCN2S(=O)(=O)c1ccccc1)NO` [Type A, (E)-N-hydroxy-3-(1-(phenylsulfonyl)indolin-5-yl) acrylamide]?
solubility ([1]; THE (as stored; likely THF), organic solvent or mixture, thermodynamic from solid, THE, RT): > 44000 µg/mL; solubility ([1]; organic solvent or mixture, thermodynamic from solid, 1,4-Dioxane, RT): 21000 to 42000 µg/mL (≈ 61 to 122 mM); solubility ([1]; organic solvent or mixture, thermodynamic from solid, 2-MeTHF, RT): 2000 to 5000 µg/mL (≈ 5.81 to 14.5 mM); solubility ([1]; organic solvent or mixture, thermodynamic from solid, ACN, RT): 9500 to 19000 µg/mL (≈ 27.6 to 55.2 mM); solubility ([1]; organic solvent or mixture, thermodynamic from solid, Acetone, RT): > 40000 µg/mL; solubility ([1]; organic solvent or mixture, thermodynamic from solid, CHCl3, RT): < 1000 µg/mL; solubility ([1]; organic solvent or mixture, thermodynamic from solid, DCM, RT): 1000 to 2000 µg/mL (≈ 2.9 to 5.81 mM); solubility ([1]; organic solvent or mixture, thermodynamic from solid, DMAc, RT): > 40000 µg/mL; solubility ([1]; organic solvent or mixture, thermodynamic from solid, DMSO, RT): > 40000 µg/mL; solubility ([1]; organic solvent or mixture, thermodynamic from solid, EtOAc, RT): 2000 to 5000 µg/mL (≈ 5.81 to 14.5 mM); solubility ([1]; organic solvent or mixture, thermodynamic from solid, EtOH, RT): 5500 to 11000 µg/mL (≈ 16 to 31.9 mM); solubility ([1]; organic solvent or mixture, thermodynamic from solid, IPA, RT): 2000 to 5000 µg/mL (≈ 5.81 to 14.5 mM); solubility ([1]; organic solvent or mixture, thermodynamic from solid, IPAc, RT): < 1100 µg/mL; solubility ([1]; organic solvent or mixture, thermodynamic from solid, MIBK, RT): 2000 to 5000 µg/mL (≈ 5.81 to 14.5 mM); solubility ([1]; organic solvent or mixture, thermodynamic from solid, MTBE, RT): < 1000 µg/mL; solubility ([1]; organic solvent or mixture, thermodynamic from solid, MeOH, RT): 20000 to 40000 µg/mL (≈ 58.1 to 116 mM); solubility ([1]; organic solvent or mixture, thermodynamic from solid, NMP, RT): > 40000 µg/mL; solubility ([1]; organic solvent or mixture, thermodynamic from solid, Toluene, RT): < 1000 µg/mL; solubility ([1]; organic solvent or mixture, thermodynamic from solid, n-Heptane, RT): < 1000 µg/mL; solubility ([1]; water, thermodynamic from solid, H2O, RT): < 1000 µg/mL; form after heating (XRPD) ([2]; heated to 100° C. and cooled to RT): no form change; form after heating (XRPD) ([2]; heated to 122° C./130° C. and cooled to RT): converted to a new form, named as Type B; Appearance ([3]; 0 months): Pale white powder; Assay (HPLC) (98.0%~102.0%) (anhydrous basis) ([3]; 0 months): 101.6%; Related substance (HPLC) ABT-301 dimer (NMT 0.5%) ([3]; 0 months): 0.03 a/a %; Related substance (HPLC) Individual unknown Impurity (NMT 0.4%) ([3]; 0 months): 0.03%; Related substance (HPLC) Total Impurities (NMT 1.0%) ([3]; 0 months): 0.08%; Water content (KF) (NMT 4.0%) ([3]; 0 months): 2.6%; Appearance ([3]; 1 month): Pale white powder; Assay (HPLC) (98.0%~102.0%) (anhydrous basis) ([3]; 1 month): 100.2%; Related substance (HPLC) ABT-301 dimer (NMT 0.5%) ([3]; 1 month): 0.03 a/a %; Related substance (HPLC) Individual unknown Impurity (NMT 0.4%) ([3]; 1 month): 0.05%; Related substance (HPLC) Total Impurities (NMT 1.0%) ([3]; 1 month): 0.12%; Water content (KF) (NMT 4.0%) ([3]; 1 month): 2.6%; Appearance ([3]; 2 months): Pale white powder; Assay (HPLC) (98.0%~102.0%) (anhydrous basis) ([3]; 2 months): 101.2%; Related substance (HPLC) ABT-301 dimer (NMT 0.5%) ([3]; 2 months): 0.03 a/a %; Related substance (HPLC) Individual unknown Impurity (NMT 0.4%) ([3]; 2 months): 0.03%; Related substance (HPLC) Total Impurities (NMT 1.0%) ([3]; 2 months): 0.09%; Water content (KF) (NMT 4.0%) ([3]; 2 months): 2.6%; Appearance ([3]; 3 months): Pale white powder; Assay (HPLC) (98.0%~102.0%) (anhydrous basis) ([3]; 3 months): 101.8%; Related substance (HPLC) ABT-301 dimer (NMT 0.5%) ([3]; 3 months): 0.03 a/a %; Related substance (HPLC) Individual unknown Impurity (NMT 0.4%) ([3]; 3 months): 0.06%; Related substance (HPLC) Total Impurities (NMT 1.0%) ([3]; 3 months): 0.11%; Water content (KF) (NMT 4.0%) ([3]; 3 months): 2.6%; Appearance ([3]; 6 months): Pale white powder; Assay (HPLC) (98.0%~102.0%) (anhydrous basis) ([3]; 6 months): 99.8%; Related substance (HPLC) ABT-301 dimer (NMT 0.5%) ([3]; 6 months): 0.03 a/a %; Related substance (HPLC) Individual unknown Impurity (NMT 0.4%) ([3]; 6 months): 0.06%; Related substance (HPLC) Total Impurities (NMT 1.0%) ([3]; 6 months): 0.13%; Water content (KF) (NMT 4.0%) ([3]; 6 months): 2.6%; water uptake (DVS) ([4]; 25° C./80% RH): 0.1396%; form change after DVS test (XRPD) ([4]; after DVS test): no form change; water activity at which the form was obtained in competitive slurry [5]: ≥ 0.37; Assay ([6]; 25° C./60% RH, 1 week): 96.4%; Form (XRPD) ([6]; 25° C./60% RH, 1 week): Type A; HPLC purity ([6]; 25° C./60% RH, 1 week): 99.85 Area %; Assay ([6]; 25° C./60% RH, 2 weeks): 94.7%; Form (XRPD) ([6]; 25° C./60% RH, 2 weeks): Type A; HPLC purity ([6]; 25° C./60% RH, 2 weeks): 99.83 Area %; Assay ([6]; 25° C./60% RH, 4 weeks): 96.4%; Form (XRPD) ([6]; 25° C./60% RH, 4 weeks): Type A; HPLC purity ([6]; 25° C./60% RH, 4 weeks): 99.84 Area %; KF (water content) ([6]; 25° C./60% RH, 4 weeks): 2.8030%; Assay ([6]; 40° C./75% RH, 1 week): 96.6%; Form (XRPD) ([6]; 40° C./75% RH, 1 week): Type A; HPLC purity ([6]; 40° C./75% RH, 1 week): 99.84 Area %; Assay ([6]; 40° C./75% RH, 2 weeks): 95.6%; Form (XRPD) ([6]; 40° C./75% RH, 2 weeks): Type A; HPLC purity ([6]; 40° C./75% RH, 2 weeks): 99.84 Area %; Assay ([6]; 40° C./75% RH, 4 weeks): 96.1%; Form (XRPD) ([6]; 40° C./75% RH, 4 weeks): Type A; HPLC purity ([6]; 40° C./75% RH, 4 weeks): 99.85 Area %; KF (water content) ([6]; 40° C./75% RH, 4 weeks): 4.1509%; Assay ([6]; 60° C., 1 week): 96.2%; Form (XRPD) ([6]; 60° C., 1 week): Type A; HPLC purity ([6]; 60° C., 1 week): 99.83 Area %; Assay ([6]; 60° C., 2 weeks): 95.0%; Form (XRPD) ([6]; 60° C., 2 weeks): Type A; HPLC purity ([6]; 60° C., 2 weeks): 99.76 Area %; Assay ([6]; 60° C., 4 weeks): 95.7%; Form (XRPD) ([6]; 60° C., 4 weeks): Type A; HPLC purity ([6]; 60° C., 4 weeks): 99.82 Area %; KF (water content) ([6]; 60° C., 4 weeks): 4.3786%; Assay ([6]; Initial): 95.6%; Form (XRPD) ([6]; Initial): Type A; HPLC purity ([6]; Initial): 99.84 Area %; KF (water content) ([6]; Initial): 2.8220%; Assay ([6]; […], 1 week): 96.3%; Form (XRPD) ([6]; […], 1 week): Type A; HPLC purity ([6]; […], 1 week): 99.85 Area %; Assay ([6]; […], 2 weeks): 95.6%; Form (XRPD) ([6]; […], 2 weeks): Type A; HPLC purity ([6]; […], 2 weeks): 99.84 Area %; Assay ([6]; […], 4 weeks): 96.5%; Form (XRPD) ([6]; […], 4 weeks): Type A; HPLC purity ([6]; […], 4 weeks): 99.85 Area %; KF (water content) ([6]; […], 4 weeks): 3.1154%; HPLC purity change after solid stability [6, 7]: no form change, or obvious HPLC purity change; form change after solid stability [6, 7]: no form change
